Laboratory results as given in PMC13205134, “Design, synthesis, and biological properties exhibited by 1,2,3-triazole based Grp94-selective inhibitors” (European journal of medicinal chemistry, 2025).
Several values for one entry are separate records, joined by “and”; a condition that tells them apart may be missing. Equal values may be shown once. Entries after “also recorded” stand apart in the source; their conditions may differ.

Key:
Y437H myocilin = experiment: Cellular assay for mutant myocilin in dox-inducible trabecular meshwork (TM-1) cells; type: cell-based, human
Experimental: (§1) Immortalized human trabecular meshwork (TM-1) cells stably transduced with WT or Y437H myocilin (50 MOI) were grown in low-glucose (1 g/L) Dulbecco’s modified Eagle medium with glutamine (DMEM, Gibco) supplemented with 10 % FBS (Hyclone), 1–2 % PS (Gibco) at 37 °C, and 200 μg/mL hygromycin (Corning), TM-1 cells were seeded in 6 well plates at equivalent cell counts/replicate. The following day, myocilin expression was induced by treating the cells with 2 μg/mL doxycycline (dox, Thermo-Scientific) in serum-free media. After 48 h, media was replaced with serum-free media containing 2 μg/mL dox to induce myocilin expression and 47 at the designated concentration for an additional 24 h.
(§2) Cells were lysed using lysis buffer (100 mM Tris-HCl pH 7.4, 3 mM EGTA, 5 mM MgCl2, 0.5 % Triton X 100) supplemented with 0.6 mM phenylmethylsulfonyl fluoride, and a 1:100 v/v protease inhibitor cocktail containing complete EDTA-free protease inhibitor (Roche) and 1 % (v/v) phosphatase inhibitor cocktails II and III (Sigma-Aldrich). Cells lysed by rocking in lysis buffer for ~2 h at 4 °C. Detergent-soluble and detergent insoluble fractions were separated by centrifugation. Protein concentration of the detergent-soluble fractions was determined by BCA assay (Pierce).
The detergent-soluble samples were prepared in equal protein concentration in 5X Laemmli buffer containing 5–10 % (v/v) β-mercaptoethanol. The samples were heated at 95 °C for 5 min and loaded on 12 % Tris-glycine gels. The gels were then transferred to methanol-activated PVDF membranes using the Trans-blot Turbo transfer system (Bio-Rad). […] Quantification of protein bands on Western blots was performed using ImageLab (Bio-Rad). Measurements of band density were normalized to actin loading control within each experiment, and the statistical significance was determined with one-way ANOVA with GraphPad Prism.

Grp94 = experiment: Competitive binding fluorescence polarization (FP) assay, Grp94; details: for Polarization Read 1 / Polarization Read 2 / Polarization Read 3: replicate wells, protein not given
Experimental: The Fluorescence Polarization Assay (FP) was performed in 96-well flat-bottom plates (Santa Cruz Biotechnology) with a final volume of 100 μL per well. […] Each well contained 10 nM of Hsp90α or Grp94 (Enzo Biochem Inc.) and 6 nM of FITC-GDA (fluorescent tracer, stock in DMSO). Compounds were tested in triplicate at final concentrations of 100 μM, 10 μM, 1 μM, 0.1 μM and 0.01 μM with each final concentration containing 1 % DMSO. Each plate included control wells containing: (i) buffer only (background polarization), (ii) protein plus tracer (maximum polarization control), and (iii) tracer only (minimum polarization control). Plates were incubated on a rocker at 4 °C for 24 h.

Hsp70 = experiment: Western blot of Hsp70 in MDA-MB-231 cells; type: cell-based; details: 24 h
Experimental: (§3) MDA-MB-231 cells were grown in a water jacketed incubator at 37 °C with 5 % CO2. Cells were cultured in DMEM (Corning) media supplemented with 10 % heat-inactivated fetal bovine serum (FBS, Gibco, 10438-026) and 1 % Penicillin-Streptomycin (VWR, K952-100 mL). Cells were seeded in clear, flat bottom 6-well plates with each well containing 500,000 cells and grown to 80 % confluency. The medium was replaced with fresh DMEM that contains compounds of interest at the indicated concentrations or vehicle control, and cells were incubated for 24 h. Following treatment, MDA-MB-231 cells were then lysed in RIPA buffer supplemented with protease and phosphatase inhibitors. Protein concentration in lysates were determined by BCA assay (Thermo). Equal amounts of protein were separated by SDS-PAGE on 10 % polyacrylamide gels and […] onto nitrocellulose membranes. Transfer efficiency and total protein loading were confirmed by Ponceau staining. Membranes were blocked with 6 % nonfat dry milk and probed with primary antibodies against GAPDH (Cell Signaling, 14C10), Hsp70 (Cell Signaling, C92F3A), Akt, and Integrin α2 (Cell Signaling, D8V7H) each diluted 1:1000. Secondary antibodies were also used at 1:1000 (Southern Biotech), immunoblots were developed using ECL substrate (Amersham, 45-000-999) and visualized on a ChemiDoc Imaging System (BioRad).

Hsp90α = Hsp90α (Homo sapiens, UniProt P07900); experiment: Competitive binding fluorescence polarization (FP) assay, Hsp90α; details: FITC-GDA tracer, mean of triplicates ± SD, read-out: Apparent Kd Hsp90α
Experimental: The Fluorescence Polarization Assay (FP) was performed in 96-well flat-bottom plates (Santa Cruz Biotechnology) with a final volume of 100 μL per well. The assay buffer consisted of 20 mM HEPES, 50 mM KCl, 10.5 mM MgCl2, 20 mM Na2MoO4, 0.01 % NP-40 detergent (NP-40), and pH 7.3 with fresh 2 mM dithiothreitol (DTT) and 0.1 mg/mL bovine γ-globulin (BGG). Each well contained 10 nM of Hsp90α or Grp94 (Enzo Biochem Inc.) and 6 nM of FITC-GDA (fluorescent tracer, stock in DMSO). Compounds were tested in triplicate at final concentrations of 100 μM, 10 μM, 1 μM, 0.1 μM and 0.01 μM with each final concentration containing 1 % DMSO. Each plate included control wells containing: (i) buffer only (background polarization), (ii) protein plus tracer (maximum polarization control), and (iii) tracer only (minimum polarization control). Plates were incubated on a rocker at 4 °C for 24 h. Fluorescence polarization (mP units) was measured at 37 °C using excitation and emission wavelengths of 485 and 528 nm, respectively. Apparent Kd values were determined via calculations from the polarization data obtained at which the tracer was displaced by 50 % by the compounds of interest.
[I50] = concentration of free inhibitor at 50% inhibition, [L50] = concentration of free fluorescence labeled ligand molecule at 50% inhibition, [P0] = concentration of free protein at 0% inhibition, K = dissociation constant of the protein−ligand complex.^4

integrin α2 = experiment: Western blot of integrin α2 in MDA-MB-231 cells; type: cell-based; details: 5 μM, 24 h
Experimental: as §3

Akt = experiment: Western blot of Akt in MDA-MB-231 cells; type: cell-based; details: 24 h
Experimental: as §3

wild-type myocilin = experiment: Cellular assay for wild-type myocilin in dox-inducible trabecular meshwork (TM-1) cells; type: cell-based, human; details: higher dose (30 μM), 24 h, Western blot
Experimental: as §1
as §2, with “Detergent-soluble and detergent insoluble fractions were separated by centrifugation.” left out
The detergent-soluble samples were prepared in equal protein concentration in 5X Laemmli buffer containing 5–10 % (v/v) β-mercaptoethanol. […] Quantification of protein bands on Western blots was performed using ImageLab (Bio-Rad). […]

CCCc1ccccc1Cc1cnnn1CCc1c(Cl)c(O)cc(O)c1C(=O)OC [Compound 47, methyl 3-chloro-4,6-dihydroxy-2-(2-(5-(2-propylbenzyl)-1H-1,2,3-triazol-1-yl)ethyl)benzoate]
Y437H-mutant myocilin levels (Y437H myocilin; 3 μM, 24 h, TM-1 cells, Western blot): statistically significant reduction
reduction of levels of intracellular myocilin (Y437H myocilin; 30 μM, 24 h, TM-1 cells Y437H myocilin, Western blot): ≥ 50%
intracellular accumulation of mutant myocilin (Y437H myocilin; human trabecular meshwork cells, concentration not given): reduced the intracellular accumulation of mutant myocilin
Polarization Read 1 (Grp94; 0.01 µM): 298 and 289 and 285
Polarization Read 2 (Grp94; 0.01 µM): 278 and 288 and 270
Polarization Read 3 (Grp94; 0.01 µM): 275 and 284 and 279
Polarization Read 1 (Grp94; 0.1 µM): 247 and 250 and 234
Polarization Read 2 (Grp94; 0.1 µM): 234 and 231 and 237
Polarization Read 3 (Grp94; 0.1 µM): 220 (2×) and 210
Polarization Read 1 (Grp94; 1 µM): 189 and 179 and 182
Polarization Read 2 (Grp94; 1 µM): 178 and 177 and 180
Polarization Read 3 (Grp94; 1 µM): 185 (2×) and 186
Polarization Read 1 (Grp94; 10 µM): 170 and 191 and 174
Polarization Read 2 (Grp94; 10 µM): 172 and 178 and 176
Polarization Read 3 (Grp94; 10 µM): 169 and 185 and 177
improvement in affinity compared to BnIm (Grp94; Grp94 affinity, relative to first generation BnIm): 15 fold
improvement in affinity compared to BnPh (Grp94; Grp94 affinity, relative to second generation BnPh): 8 fold
increase in affinity on extension of ethyl to propyl group (Grp94; Grp94 affinity, relative to the 2-ethyl analog): 10 fold
Fold selective for Grp94 (Grp94; selectivity over Hsp90α, n.s. = non-selective): 121 fold
Hsp70 expression (Hsp70): does not induce Hsp70 expression
Kd (Hsp90α): 9.17 ± 0.86 µM
levels of Integrin α2 (integrin α2): induced the degradation of integrin α2; also recorded: reduced the levels of Integrin α2
effect on Akt (cytosolic Hsp90 client protein) (Akt): did not affect Akt
wild-type myocilin expression (wild-type myocilin): statistically significant decrease
